Laboratory results published in US5276023A, “19-nor-steroid esters” (Roussel Uclaf, priority 1989, dated 1994).

Test: solubility in water
Format: physicochemical

solubility: > 250 mg/mL
SMILES: CC#C[C@]1(OC(=O)CCC(=O)O)CC[C@H]2[C@@H]3CCC4=CC(=O)CCC4=C3[C@@H](c3ccc(N(C)C(C)C)cc3)C[C@@]21C [Example 18, Sodium and 11β-[4(N-methyl-isopropylamino)-phenyl]-17α-(1-propynyl)-Δ^4,9-estradien-3-one-17β-yl succinate]
